Experimental data as given in patent publication US7981623B2, “Repressor of skeletal muscle differentiation, nucleic acids coding therefor and the use thereof in diagnosis and therapy” (Universitaetsklinikum Freiburg, priority 2002, dated 2011).
“Also recorded” adds a separate entry of the source.

Key:
[1] = test system: Gal4-RE-controlled complex and synthetic minimal reporter constructs; test: Gal4-DBD fusion repression, transient transfection luciferase reporter; assay type: cell-based; conditions: for effect of HDAC inhibitor on Gal-GRIM1 repression: trichostatin A 300 nM, sodium butyrate 5 mM; for transcriptional repression: Gal4-DBD context, all reporter systems described; for repression potential as Gal4-DBD fusion (in words): transient transfections
Description: To determine the transcriptional properties of hsGRIM1 proteins in eukaryotic cells, pCMX-hsGRIM1 expression plasmids were cotransfected with luciferase (LUC) reporter plasmids. Expression of the particular hsGRIM1 protein in a pCMX expression plasmid is under the control of the cytomegalovirus promoter. Luciferase expression in the LUC reporter plasmids used is controlled either by the thymidine kinase (TK) promoter, an E1b minimal promoter (TATA box), or by the respectively indicated complex promoters.
Transfection takes place by the calcium phosphate method or by the DOTAP liposomes method (Roche Diagnostics, product information). Unless otherwise indicated, 10^5 cells/well were seeded in 1 ml of culture medium in 12-well dishes. In the CaPO4 method, the plasmid DNA to be transfected is coprecipitated with calcium phosphate, and the precipitate is distributed to the cells capable of division. The calcium phosphate precipitate is prepared by preparing the mixture indicated below for duplicates in 12-well dishes:
While agitating (vortexing), 80 μl of 2xBES buffer are slowly and uniformly added dropwise to this mixture. The precipitate is incubated at RT for 10 min and distributed uniformly to the cells (80 μl per well) and, after 8 hours, removed by washing with PBS. The cells are incubated in fresh culture medium for a further 18 to 24 h. • BES buffer (2×): 50 mM N,N-bis[2hydroxyethyl]-2-aminoethanesulfonic acid; 280 mM NaCl; 1.5 mM Na2HPO4.2H2O; pH 6.95
Transiently transfected cells are washed once with PBS and lyzed by adding 50 μl of reporter lysis buffer (Promega) and further disrupted by freezing at −80° C. Cell lysates are transferred into Eppendorf reaction vessels, and cell detritus is pelleted at 14 000 rpm for 2′. 10 μl portions of the lysates are pipetted into 96-well microtiter plates to determine the luciferase activity. The luciferase assay took place in an EG&G Berthold Microluminomat. 40 μl of luciferase assay buffer are injected into the 10 μl of cell lysate, and the resulting chemiluminescence is determined in a time integral of 10″. The measured values for the luciferase activity are related to the amount of protein present in the cell lysate. For this purpose, 3 μl portions of the lysates are mixed in 96-well microtiter plates with 100 μl of Bradford assay reagent (BioRad) diluted 1:5 with H2O, and the absorption of the solution is determined at 595 nm. Relative luciferase activities are found from the ratio of the luciferase activity to the protein absorption. • Luciferase assay buffer: 200 mM tricine; 1.07 mM (MgCO3).4Mg(OH)2; 0.1 M MgSO4, 10 mM EDTA (pH 8.0); 33 mM DTT; […]; […] acetyl-coenzyme A; […] glowworm luciferin.
All the described data were obtained with the hsGRIM1 clone. […] Gal-GRIM1 represses expression of reporter genes both of Gal4-RE-controlled complex and synthetic minimal reporter constructs. The repression potential of GRIM1 is distinctly greater for example compared with the corepressor Gal-SuN-CoR. In these experiments, the appropriate corepressors are transiently expressed as heterologous Gal4-DBD fusion proteins in cells. The repression capacity on various synthetic promoter-reporter constructs compared with equal quantities of transfected wild-type Gal4-DBD is determined by luciferase reporter gene expression (FIG. 8).
Gal-GRIM1 is equally strong as a repressor as a large number of described corepressors such as, for example, Gal-HDAC1-10, Gal-CBF1, Gal-Alien and represses only insignificantly weaker than Gal-N-CoR-RD or Gal-SMRT-RD. The repression potential of Gal-GRIM1 was investigated in conjunction with the complex Gal43x-tk-LUC and Gal-MMTV-LUC promoter/reporter constructs and in conjunction with the minimal promoter/reporter constructs Gal5x-E1b-TATA-box and Gal3x-βglobin-TATA-LUC. […]

[2] = test system: differentiating C2C12 skeletal muscle cells; test: GRIM1 relocalization in differentiating C2C12 cells under signal pathway inhibitors; assay type: cell-based, mouse; conditions: day 0 to day 6 in differentiation medium; Gö6850 1 μM, LY294002 10 μM, Ro31-8220 0.5 μM, PD98059 10 μM, fasudil 10 μM
Protocol: The cells were cultured in the media recommended by the ATCC on 15 cm cell culture dishes under sterile conditions. Cells are subcultured in a ratio of 1:5 to 1:20 every two to three days and kept at a maximum of 60% confluence. Old medium is removed, and the cells are washed with PBS buffer and treated with trypsin/EDTA solution (0.25% trypsin, 0.04% EDTA in PBS buffer) until they are detached from the culture dish. The cells are isolated in fresh medium and subcultured on new subculture dishes. • PBS buffer: 137 mM NaCl; 2.7 mM KCl; 8 mM Na2HPO4; 1.8 mM KH2PO4 • Media used: DMEM (Gibco BRL), 100 IU penicillin G/ml, 100 μg/ml streptomycin, 2 mM glutamine, 10% fetal calf serum. As differentiation medium for C2C12 and L6 cells, 10% FCS was replaced by 2% horse serum.
Cells are seeded in the desired cell density on autoclaved slides and fixed on the support with 5% paraformaldehyde for 10′. Cell membranes are made permeable for antibodies by incubation in 0.2% TritonX100 for 10′. Before the incubation with the primary antibodies, the cells are blocked in 0.2% gelatin (in PBS) at RT for 1 h. Anti-hsGRIM1 antibodies are diluted 1:500 in 0.2% strength gelatin solution and incubated at RT for 1 h. After washing three times with PBS for 5′ each time, the respective fluorochrome-coupled secondary antibody is added 1:2000 in 0.2% gelatin solution and incubated in the dark at RT for 30′. After the washing steps, the nucleus is counterstained with DAPI (1 μg/ml PBS, Roche Diagnostics) and the cells are finally washed twice in 0.1% TritonX100 in order to minimize autofluorescences. The slides are preserved in Fluoromount M (Southern Biotechnology Associates) and analyzed using a fluorescence microscope.
Treatment of differentiating C2C12 skeletal muscle cells with various inhibitors of central signal transduction pathways have no effect on relocalization or the number of nuclear speckles of GRIM1 within the investigated differentiation from day 0 to day 6 after addition of the differentiation medium. Tested inhibitors: pan-HDAC inhibitors TSA and sodium butyrate, protein kinase inhibitors Gö6850 (specific PKC inhibitor, 1 μM), LY294002 (specific P13kinase inhibitor, 10 μM), Ro31-8220 (PKC broad-spectrum inhibitor, 0.5 μM), PD98059 (MEK1 inhibitor, 10 μM), fasudil (Rock kinase inhibitor, 10 μM), SB203580 (p38α/β inhibitor). Overacetylation and blockade of central signal cascades had drastic morphologically visible consequences for some of the cells, but there was no effect on relocalization or the number of detectable GRIM1 speckles.

[3] = test system: androgen receptor (hsAR); test: GRIM1-AR protein-protein interaction (pulldown, co-IP, yTHS); assay type: binding, human
Protocol: Further functional characterization of the interaction domains within GRIM1 was carried out by pulldown analyses with the expressible fragments of GRIM1.

[4] = test system: nuclear export of GFP-GRIM1 (exportin1/Crm1); test: Nuclear export of GFP-GRIM1 under leptomycin B; assay type: cell-based; conditions: 20 nM for 6 h before cell harvesting
[5] = test system: acetylation of core histones by p300; test: INHAT assay (in vitro acetylation of histones by p300); assay type: biochemical; conditions: core histones H3, H2A, H2B and H4
Protocol: INHAT assays were carried out as described by Eckner et al. and by Seo et al. (Eckner et al., 1996, Genes and Development 10 (19), pp 2478-2490, Seo et al., 2001, Cell 104 (1), pp 119-130). Histones or histone mixtures are preincubated with the appropriate peptides in a total of 50 μl of HAT buffer, then mixed with bacterially expressed p300 HAT domains and 0.5 μCi of ^14C-acetyl-coenzyme A, and incubated at 30° C. and 1000 rpm for 2 h. Reactions are stopped by adding SDS Laemmli buffer. Proteins are fractionated in denaturing SDS-PAGE, and the gels are incubated in Amplify (NEN) for 1 h. Acetylations are detected in autoradiographies.
It was possible to show in GST pulldown analyses that the N- and C-terminal fragments of hsGRIM1 can associate directly with histones in vitro.

[6] = test system: core histones H4, H2B, H2A and H3; test: GST pulldown with core histones; assay type: binding
Protocol: A protein is expressed as GST fusion protein in E. coli, immobilized on a GST-binding carrier material, and incubated with the potential interactant which is usually radiolabeled. In the subsequent washing steps, proteins which interact only weakly or not at all are washed off the carrier material or the carrier material-bound GST fusion protein. The amount of associated interactant can be determined by fractionation of the proteins by SDS-PAGE and subsequent autoradiography. To check the specificity of interaction between potential interactant and GST fusion protein, the interaction with GST alone is examined.
Aliquots of GST-GRIM1 fragments or GST-containing E. coli crude lysate are mixed in each case with 30 μl of glutathione(GSH)-Sepharose and incubated on a bohemian wheel at 4° C. for 1 h. The GSH-Sepharose is pelleted by centrifugation (1′ at 2000 rpm) and washed twice in pulldown buffer. The pellet is then resuspended in 500 μl of pulldown buffer and incubated with the in vitro translated, […] potential interactant at 4° C. on the bohemian wheel for 1 h. […]

CN(C)CCCn1cc(C2=C(c3c[nH]c4ccccc34)C(=O)NC2=O)c2ccccc21 [Gö6850]
brought about a change in the transcriptional activity of Gal-GRIM1 ([1]; PKC inhibition or activation, various cell lines): Neither
effect on relocalization or number of nuclear speckles of GRIM1 [2]: no effect

O=c1cc(N2CCOCC2)oc2c(-c3ccccc3)cccc12 [LY294002]
effect on relocalization or number of nuclear speckles of GRIM1 [2]: no effect

COc1cccc(-c2cc(=O)c3ccccc3o2)c1N [PD98059]
effect on relocalization or number of nuclear speckles of GRIM1 [2]: no effect

Cn1cc(C2=C(c3cn(CCCSC(=N)N)c4ccccc34)C(=O)NC2=O)c2ccccc21 [Ro31-8220]
effect on relocalization or number of nuclear speckles of GRIM1 [2]: no effect

C[S+]([O-])c1ccc(-c2nc(-c3ccncc3)c(-c3ccc(F)cc3)[nH]2)cc1 (centres unmarked) [SB203580]
effect on relocalization or number of nuclear speckles of GRIM1 [2]: no effect

O=S(=O)(c1cccc2cnccc12)N1CCCNCC1 [fasudil]
effect on relocalization or number of nuclear speckles of GRIM1 [2]: no effect

CC(C)(O)C(=O)Nc1ccc([N+](=O)[O-])c(C(F)(F)F)c1 [hydroxyflutamide]
influence of AR antagonist on GRIM1-AR interaction [3]: cannot be influenced

CCC(=C/[C@H](C)C/C=C/C(C)=C/[C@@H](C)C(=O)[C@@H](C)[C@H](O)[C@@H](C)C/C(C)=C/C(=O)O)/C=C/[C@@H]1OC(=O)C=C[C@@H]1C [leptomycin B]
effect on nuclear export of GFP-GRIM1 or GFP-GRIM1 aa234-336 [4]: not influenced

CCCC(=O)[O-].[Na+] [sodium butyrate]
effect of HDAC inhibitor on Gal-GRIM1 repression [1]: not impaired
effect on relocalization or number of nuclear speckles of GRIM1 [2]: no effect

CC(/C=C/C(=O)NO)=C\[C@@H](C)C(=O)c1ccc(N(C)C)cc1 [trichostatin A]
effect on general transcription ([1]; cotransfection of full-length p300 and Gal-GRIM1): enhances general transcription
effect of HDAC inhibitor on Gal-GRIM1 repression [1]: not impaired; also recorded: relative repression by Gal-GRIM1 remains unchanged; also recorded: not influenced
effect on relocalization or number of nuclear speckles of GRIM1 [2]: no effect

GRIM1 aa 3-147: recombinantly expressed N-terminal hsGRIM1 fragment, tag not stated
inhibition of histone acetylation by p300 (INHAT activity) [5]: efficiently blocks acetylation

GST-E: GST-fused hsGRIM1 aa 3-147
interaction with core histones [6]: marked interaction

GST-I: GST-fused hsGRIM1 aa 609-749
interacted with the AR in pulldown ([3]; GST fragments, in the sequence M≧H>>I): interacted with the AR
interaction with core histones [6]: marked interaction

Gal-E: hsGRIM1 aa 3-147 as Gal4-DBD fusion
transcriptional repression [1]: 2 ×
repression potential as Gal4-DBD fusion (in words) [1]: smallest repressive effect

Gal-I: hsGRIM1 aa 609-749 as Gal4-DBD fusion (Table 8; Table 2 differs)
transcriptional repression [1]: 2 ×
repression potential as Gal4-DBD fusion (in words) [1]: smallest repressive effect

mmGRIM1: mouse GRIM1, 750 amino acids, Seq. ID No. 4
interaction with hsAR ([3]; tfIP, utfIP, yTHS, PD and tT): strong direct interaction
